We go through four molecules from publication PMC3740188 (Protein & cell, 2013).

Format in all cases: binding
The target in assay [1] is T1, AT cpn-β (thermosome cpn-β) (Acidianus tengchongensis, UniProt Q877H2).
T1 sequence (Q877H2 1-553): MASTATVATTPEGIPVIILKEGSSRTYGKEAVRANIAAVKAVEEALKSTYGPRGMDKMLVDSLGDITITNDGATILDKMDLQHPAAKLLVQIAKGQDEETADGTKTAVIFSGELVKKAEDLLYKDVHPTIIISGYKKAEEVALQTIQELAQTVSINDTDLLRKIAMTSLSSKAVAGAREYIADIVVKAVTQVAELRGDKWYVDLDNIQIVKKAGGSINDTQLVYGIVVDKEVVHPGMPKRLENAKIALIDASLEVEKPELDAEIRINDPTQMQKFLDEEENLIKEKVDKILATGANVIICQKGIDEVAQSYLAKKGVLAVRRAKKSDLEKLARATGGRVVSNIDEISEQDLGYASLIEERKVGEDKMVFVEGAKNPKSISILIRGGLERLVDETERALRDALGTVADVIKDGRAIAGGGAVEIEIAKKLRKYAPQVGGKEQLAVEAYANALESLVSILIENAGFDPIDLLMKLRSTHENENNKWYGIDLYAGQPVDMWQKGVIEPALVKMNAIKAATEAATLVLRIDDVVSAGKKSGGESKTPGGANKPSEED
The assay can be described thus: heating […] min then native PAGE of oligomer dissociation. The settings on record: ADP in place of ATP; pH 7.5, MgCl2.

Assay [2] concerns the target T2, AT cpn-α (thermosome cpn-α) (Acidianus tengchongensis, UniProt Q877H0).
T2 sequence (Q877H0 1-563): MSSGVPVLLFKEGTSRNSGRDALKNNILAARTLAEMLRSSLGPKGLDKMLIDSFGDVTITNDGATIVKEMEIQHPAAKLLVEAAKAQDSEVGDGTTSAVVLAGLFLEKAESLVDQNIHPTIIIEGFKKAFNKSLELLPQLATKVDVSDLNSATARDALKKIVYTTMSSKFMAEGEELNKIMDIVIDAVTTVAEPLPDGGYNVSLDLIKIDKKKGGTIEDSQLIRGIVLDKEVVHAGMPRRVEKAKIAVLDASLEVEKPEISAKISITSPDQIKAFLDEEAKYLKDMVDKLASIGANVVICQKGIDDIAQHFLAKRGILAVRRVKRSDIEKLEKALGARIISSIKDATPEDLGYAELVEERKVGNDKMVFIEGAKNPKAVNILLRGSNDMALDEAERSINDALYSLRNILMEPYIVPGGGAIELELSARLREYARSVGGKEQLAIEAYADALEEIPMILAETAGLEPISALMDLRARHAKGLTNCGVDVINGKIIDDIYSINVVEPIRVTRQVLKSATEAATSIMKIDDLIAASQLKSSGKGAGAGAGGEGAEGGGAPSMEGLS
The description is as above. To be noted: ADP in place of ATP; pH 7.5, MgCl2.

Assay [3] has as its target T1, AT cpn-β (thermosome cpn-β). Kind of assay: nucleotide-induced oligomer assembly by native PAGE. The settings on record: 2 mM nucleotide, 20 mM MgCl2, pH 7.5, 37 °C, 8 h.
Assay [4] concerns the target T2, AT cpn-α (thermosome cpn-α). The description is as above. To be noted: 2 mM nucleotide, 20 mM MgCl2, pH 7.5, 37 °C, 8 h.
Assay [5] concerns the target T1, AT cpn-β (thermosome cpn-β). Kind of assay: cryo-EM reconstruction with MDFF model. The settings on record: pH 7.5, 12 mM Mg, 50 mM KCl; 6.2/5.0 Å resolution.

Take `Nc1ncnc2c1ncn2[C@@H]1O[C@H](COP(=O)(O)OP(=O)(O)O)[C@@H](O)[C@H]1O` [ADP]: the Td result in assay [1] is “ADP binding also increased the thermal stability of cpn-α and cpn-β”; in assay [2], “ADP binding also increased the thermal stability of cpn-α and cpn-β”.
As for `Nc1nc2c(ncn2[C@@H]2O[C@H](COP(=O)(O)OP(=O)(O)OP(=O)(O)O)[C@@H](O)[C@H]2O)c(=O)[nH]1` [GTP], the “nucleotide-induced oligomer assembly by native PAGE” value in assay [3] and in assay [4] was “even GTP could induce the assembly of thermosomes” in each case.
As to `Nc1ncnc2c1ncn2[C@@H]1O[C@H](COP(=O)(O)OP(=O)(O)OP(=O)(O)O)[C@@H](O)[C@H]1O` [ATP], the “cryo-EM reconstruction with MDFF model” value in assay [5] is recorded as “cryoEM reconstructions of cpn-β in the apo or ATP-binding state”.
As to `Nc1ncnc2c1ncn2[C@@H]1O[C@H](COP(=O)(O)OP(=O)(O)NP(=O)(O)O)[C@@H](O)[C@H]1O` [AMP-PNP], the “nucleotide-induced oligomer assembly by native PAGE” value in assay [3] and in assay [4] was “all nucleotides could efficiently induce the assembly of thermosomes for both cpn-α” throughout.
